{"source": "ChEMBL document CHEMBL5052818", "about": "“Aminopyrimidine derivatives as ctps1 inhibitors” (2019)"}
{"assay": "Inhibition of C-terminal FLAG-His-tagged full length human CTPS1 measured after 60 mins by ADP-Glo assay", "units": {"IC50": "nM"}}
{"compound": "CC(C)Oc1cncc(-c2ccc(NC(=O)C(C)(C)c3ccnc(NS(C)(=O)=O)n3)c(F)c2)n1", "IC50": "> 100"}
{"compound": "CCC(C(=O)Nc1ccc(-c2cncc(OC)n2)cc1F)c1ccnc(NS(=O)(=O)C2CC2)n1", "note": "(centres undefined)", "IC50": "≤ 100"}
{"compound": "CCC(C(=O)Nc1ccc(-c2cncc(OCC(F)(F)F)n2)cc1)c1ccnc(NS(=O)(=O)C2CC2)n1", "note": "(centres undefined)", "IC50": "≤ 100"}
{"compound": "CCOc1cncc(-c2ccc(NC(=O)C(C)(C)c3ccnc(NS(=O)(=O)CC)n3)cc2)n1", "IC50": "> 100"}
{"compound": "CCOc1cccc(-c2ccc(NC(=O)C(C)(C)c3ccnc(NS(=O)(=O)C4CC4)n3)cc2)c1", "IC50": "> 10000"}
{"compound": "CCOc1cncc(-c2ccc(NC(=O)C(C)(C)c3ccnc(NS(=O)(=O)CC)n3)c(F)c2)n1", "IC50": "> 100"}
{"compound": "CCOc1cncc(-c2cnc(NC(=O)C(C)(C)c3ccnc(NS(C)(=O)=O)n3)c(F)c2)n1", "IC50": "> 100"}
{"compound": "CCOc1cncc(-c2ccc(NC(=O)C3(c4ccnc(NS(=O)(=O)C5CC5)n4)CC3)cc2)n1", "IC50": "≤ 100"}
{"compound": "CCOc1cncc(-c2ccc(NC(=O)C(C)(C)c3nc(NS(=O)(=O)C4CC4)ncc3F)cc2)n1", "IC50": "> 100"}
{"compound": "CC(C)Oc1cncc(-c2ccc(NC(=O)C(C)(C)c3ccnc(NS(C)(=O)=O)n3)c(F)c2)c1", "IC50": "> 1000"}
{"compound": "CCC(C(=O)Nc1ccc(-c2cncc(C(F)(F)F)n2)cn1)c1ccnc(NS(=O)(=O)C2CC2)n1", "note": "(centres undefined)", "IC50": "≤ 100"}
{"compound": "CCC(C(=O)Nc1ccc(-c2cncc(Cl)n2)cc1)c1ccnc(NS(=O)(=O)C2CC2)n1", "note": "(centres undefined)", "IC50": "> 100"}
{"compound": "CCC(C(=O)Nc1ccc(-c2cncc(OCC(F)(F)F)c2)cc1F)c1ccnc(NS(=O)(=O)C2CC2)n1", "note": "(centres undefined)", "IC50": "> 100"}
{"compound": "CCOc1cncc(-c2ccc(NC(=O)C(CCOC)c3ccnc(NS(=O)(=O)C4CC4)n3)cc2)n1", "note": "(centres undefined)", "IC50": "≤ 100"}
{"compound": "CCC(C(=O)Nc1ccc(-c2cccnc2)cn1)c1ccnc(NS(=O)(=O)C2CC2)n1", "note": "(centres undefined)", "IC50": "> 1000"}
{"compound": "CCOc1cncc(-c2ccc(NC(=O)C(C)(C)c3nc(NS(=O)(=O)C4CC4)ncc3C)cc2)n1", "IC50": "> 1000"}
{"compound": "CC(C(=O)Nc1ccc(-c2cccnc2)cc1)c1ccnc(NS(=O)(=O)C2CC2)n1", "note": "(centres undefined)", "IC50": "> 100"}
{"compound": "Cc1cc(-c2cncc(C(F)(F)F)n2)ccc1NC(=O)C(C)(C)c1ccnc(NS(C)(=O)=O)n1", "IC50": "> 100"}
{"compound": "CCC(C(=O)Nc1ccc(-c2cncc(C(F)(F)F)n2)cc1F)c1ccnc(NS(=O)(=O)C2CC2)n1", "note": "(centres undefined)", "IC50": "≤ 100"}
{"compound": "CC(C)Oc1cncc(-c2ccc(NC(=O)C(C)(C)c3ccnc(NS(=O)(=O)C4CC4)n3)cc2)n1", "IC50": "≤ 100"}
{"compound": "CCOc1cncc(-c2ccc(NC(=O)C(C)(C)c3ccnc(NS(=O)(=O)C4CC4)n3)cc2)n1", "IC50": "≤ 100"}
{"compound": "CCC(C(=O)Nc1ccc(-c2cncc(OC)n2)cc1)c1ccnc(NS(=O)(=O)C2CC2)n1", "note": "(centres undefined)", "IC50": "≤ 100"}
{"compound": "CCC(C(=O)Nc1ccc(-c2cnccn2)cc1)c1ccnc(NS(=O)(=O)C2CC2)n1", "note": "(centres undefined)", "IC50": "> 100"}
{"compound": "CC(C)(C(=O)Nc1ccc(-c2cncc(C(F)(F)F)n2)cc1)c1ccnc(NS(=O)(=O)C2CC2)n1", "IC50": "≤ 100"}
{"compound": "CCOc1cncc(-c2ccc(NC(=O)C(CC)c3ccnc(NS(=O)(=O)C4CC4)n3)nc2)n1", "note": "(centres undefined)", "IC50": "≤ 100"}
{"compound": "CCC(C(=O)Nc1ccc(-c2cncc(C(F)(F)F)n2)cc1)c1ccnc(NS(=O)(=O)C2CC2)n1", "note": "(centres undefined)", "IC50": "> 100"}
{"compound": "CCC(C(=O)Nc1ccc(-c2cncc(OCC(F)(F)F)c2)cc1)c1ccnc(NS(=O)(=O)C2CC2)n1", "note": "(centres undefined)", "IC50": "> 100"}
{"compound": "CCOc1cncc(-c2ccc(NC(=O)C(C)(C)c3ccnc(NS(C)(=O)=O)n3)cc2)n1", "IC50": "≤ 100"}
{"compound": "CCC(C(=O)Nc1ccc(-c2cncc(C(F)(F)F)c2)cn1)c1ccnc(NS(=O)(=O)C2CC2)n1", "note": "(centres undefined)", "IC50": "> 100"}
{"compound": "CCC(C(=O)Nc1ccc(-c2cncc(OC(C)C)n2)cn1)c1ccnc(NS(=O)(=O)C2CC2)n1", "note": "(centres undefined)", "IC50": "≤ 100"}
{"compound": "CCC(C(=O)Nc1ccc(-c2cccnc2)cc1F)c1ccnc(NS(=O)(=O)C2CC2)n1", "note": "(centres undefined)", "IC50": "> 1000"}
{"compound": "CC(C)(C(=O)Nc1ccc(-c2cncc(C(F)(F)F)n2)cc1)c1ccnc(NS(C)(=O)=O)n1", "IC50": "> 100"}
{"compound": "CCC(C(=O)Nc1ccc(-c2cncc(C#N)c2)cc1)c1ccnc(NS(=O)(=O)C2CC2)n1", "note": "(centres undefined)", "IC50": "> 100"}
{"compound": "CC(C)(C(=O)Nc1ccc(-c2cnccn2)cc1)c1ccnc(NS(=O)(=O)C2CC2)n1", "IC50": "> 1000"}
{"compound": "CCOc1cncc(-c2ccc(NC(=O)C(CC)c3ccnc(NS(=O)(=O)C4CC4)n3)c(F)c2)n1", "note": "(centres undefined)", "IC50": "≤ 100"}
{"compound": "CCOc1cncc(-c2ccc(NC(=O)C(C)(C)c3ccnc(NS(=O)(=O)C(C)(C)C)n3)cc2)n1", "IC50": "> 1000"}
{"compound": "CCC(C(=O)Nc1ccc(-c2cccnc2)cc1)c1ccnc(NS(=O)(=O)C2CC2)n1", "note": "(centres undefined)", "IC50": "> 100"}
{"compound": "CC(C)(C(=O)Nc1ccc(-c2cncc(OC3CC3)n2)cc1)c1ccnc(NS(=O)(=O)C2CC2)n1", "IC50": "> 100"}
{"compound": "CCOc1cncc(-c2ccc(NC(=O)C(C)(C)c3ccnc(NS(=O)(=O)C4(C)CC4)n3)cc2)n1", "IC50": "> 100"}
{"compound": "CCC(C(=O)Nc1ccc(-c2cncc(OCC(F)(F)F)n2)cc1F)c1ccnc(NS(=O)(=O)C2CC2)n1", "note": "(centres undefined)", "IC50": "≤ 100"}
{"compound": "CCC(C(=O)Nc1ccc(-c2cncc(OC(C)C)n2)cc1)c1ccnc(NS(=O)(=O)C2CC2)n1", "note": "(centres undefined)", "IC50": "≤ 100"}
{"compound": "CCOc1cncc(-c2ccc(NC(=O)C(C)(C)c3ccnc(NS(C)(=O)=O)n3)nc2)n1", "IC50": "> 100"}
{"compound": "CCC(C(=O)Nc1ccc(-c2cncc(OCC(F)(F)F)c2)cn1)c1ccnc(NS(=O)(=O)C2CC2)n1", "note": "(centres undefined)", "IC50": "> 100"}
{"compound": "CCOc1cncc(-c2ccc(NC(=O)C(CC)c3ccnc(NS(=O)(=O)C4CC4)n3)cc2)n1", "note": "(centres undefined)", "IC50": "≤ 100"}
{"compound": "CCC(C(=O)Nc1ccc(-c2cncc(Cl)c2)cc1F)c1ccnc(NS(=O)(=O)C2CC2)n1", "note": "(centres undefined)", "IC50": "> 100"}
{"compound": "CCC(C(=O)Nc1ccc(-c2cncc(OC(C)C)n2)cc1F)c1ccnc(NS(=O)(=O)C2CC2)n1", "note": "(centres undefined)", "IC50": "≤ 100"}
{"compound": "CCC(C(=O)Nc1ccc(-c2cncc(OC(C)C)c2)cc1)c1ccnc(NS(=O)(=O)C2CC2)n1", "note": "(centres undefined)", "IC50": "> 100"}
{"compound": "CCS(=O)(=O)Nc1nccc(C(C)(C)C(=O)Nc2ccc(-c3cncc(C(F)(F)F)n3)cc2)n1", "IC50": "> 100"}
{"compound": "CCC(C(=O)Nc1ccc(-c2cncc(OC(C)C)c2)cc1F)c1ccnc(NS(=O)(=O)C2CC2)n1", "note": "(centres undefined)", "IC50": "> 100"}
